Assay results: ChEMBL document CHEMBL1201862, “PubChem BioAssay data set” (2004)
Calls of active or inactive are those of the source.

Assays:
[1] = tested on: HEK293; experiment: NOD1 signaling inhibitors, primary screen, cell-based, luminescence, uHTS (AID 1578); format: functional; conditions: Homo sapiens
[2] = tested on: HEK293; experiment: cells; format: functional, cell-based; conditions: Homo sapiens
[3] = tested on: HEK293; experiment: cells; format: functional, cell-based; conditions: Homo sapiens; remark: listed apart in the source
[4] = target: Nucleotide-binding oligomerization domain-containing protein 2 (Homo sapiens, UniProt Q9HC29); experiment: NOD2 signaling inhibitors, cell-based, luminescence, uHTS, HEK293 (AID 1566); format: functional
Nucleotide-binding oligomerization domain-containing protein 2, sequence (Q9HC29 whole entry, the tested form may be a part): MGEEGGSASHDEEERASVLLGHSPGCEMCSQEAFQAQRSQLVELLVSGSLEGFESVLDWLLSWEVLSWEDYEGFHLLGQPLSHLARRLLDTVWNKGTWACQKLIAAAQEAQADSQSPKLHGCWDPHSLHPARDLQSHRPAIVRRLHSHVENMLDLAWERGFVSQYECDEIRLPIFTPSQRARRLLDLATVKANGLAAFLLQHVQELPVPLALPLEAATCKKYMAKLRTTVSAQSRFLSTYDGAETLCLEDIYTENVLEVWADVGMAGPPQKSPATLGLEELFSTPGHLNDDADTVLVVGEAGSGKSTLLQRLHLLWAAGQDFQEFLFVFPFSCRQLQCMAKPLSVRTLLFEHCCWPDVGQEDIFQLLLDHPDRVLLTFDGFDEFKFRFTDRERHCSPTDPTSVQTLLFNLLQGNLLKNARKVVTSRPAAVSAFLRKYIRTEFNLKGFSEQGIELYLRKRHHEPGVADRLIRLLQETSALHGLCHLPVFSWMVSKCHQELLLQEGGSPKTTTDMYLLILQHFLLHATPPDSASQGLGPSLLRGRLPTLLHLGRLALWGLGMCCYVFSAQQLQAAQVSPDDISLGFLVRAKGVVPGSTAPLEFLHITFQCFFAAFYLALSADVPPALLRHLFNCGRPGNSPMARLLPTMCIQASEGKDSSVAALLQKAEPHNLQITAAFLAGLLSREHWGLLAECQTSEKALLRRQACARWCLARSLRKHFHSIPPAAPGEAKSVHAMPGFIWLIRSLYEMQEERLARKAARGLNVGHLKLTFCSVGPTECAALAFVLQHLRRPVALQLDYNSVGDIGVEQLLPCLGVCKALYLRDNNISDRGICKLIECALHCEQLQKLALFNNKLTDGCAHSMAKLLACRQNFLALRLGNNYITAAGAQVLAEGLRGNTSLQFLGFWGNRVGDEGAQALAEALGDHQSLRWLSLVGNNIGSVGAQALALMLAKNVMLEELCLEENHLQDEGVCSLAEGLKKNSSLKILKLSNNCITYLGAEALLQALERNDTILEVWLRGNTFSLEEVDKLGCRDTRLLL

[5] = tested on: HEK293; experiment: NOD2 signaling inhibitors in MDP-stimulated cells, cell-based, uHTS, luminescence (AID 2001); format: functional; conditions: Homo sapiens
[6] = tested on: HEK293; experiment: cells; format: functional, cell-based; conditions: Homo sapiens; remark: listed apart in the source
[7] = A549 cell cytotoxicity, dose response, cytotoxicity control, plate reader, cherry-pick, antagonist series (AID 743412); format: functional, cell-based
[8] = LGR2 antagonists, dose response, cell-based, HEK293, CRE-luciferase reporter, cherry pick, set 2 (AID 743343); format: functional;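 further: transfected cells were stimulated with diluted bursicon conditioned medium after compound addition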
[9] = MC4R antagonists, dose response, counter-screen for LGR2 antagonist project, cell-based, plate reader, cherry pick (AID 743444); format: functional;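 further: transfected HEK 293 cells stimulated with alpha-MSH peptide; potency of inhibitors of the alpha-MSH evoked signal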
[10] = target: T1, Heat shock factor protein 1 (Mus musculus, UniProt P38532); experiment: inhibition of MG132-induced HSE-luciferase signal, confirmation, cell-based, NIH3T3, luminescence, dose retest (AID 2382); format: functional;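 further: NIH3T3 fibroblasts with HSF1-driven luciferase reporter stressed by proteasome inhibitor MG132; luminescence from HSF1-driven luciferase expression after 8 hours of MG132 stress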
T1 sequence (P38532 whole entry): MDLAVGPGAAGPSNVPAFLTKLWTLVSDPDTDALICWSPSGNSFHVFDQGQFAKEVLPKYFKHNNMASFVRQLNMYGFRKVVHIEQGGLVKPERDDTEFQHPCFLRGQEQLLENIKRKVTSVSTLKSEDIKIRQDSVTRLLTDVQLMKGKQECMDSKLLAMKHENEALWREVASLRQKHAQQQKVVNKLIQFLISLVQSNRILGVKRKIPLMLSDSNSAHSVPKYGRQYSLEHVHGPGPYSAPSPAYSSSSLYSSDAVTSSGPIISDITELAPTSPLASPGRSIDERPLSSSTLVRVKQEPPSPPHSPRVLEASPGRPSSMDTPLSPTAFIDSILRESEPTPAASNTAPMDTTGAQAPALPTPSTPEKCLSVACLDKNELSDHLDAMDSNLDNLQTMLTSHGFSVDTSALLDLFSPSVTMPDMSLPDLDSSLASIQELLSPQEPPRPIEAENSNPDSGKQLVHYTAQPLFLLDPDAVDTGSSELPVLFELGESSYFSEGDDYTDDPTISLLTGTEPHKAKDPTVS

[11] = target: Photoreceptor-specific nuclear receptor (Homo sapiens, UniProt Q9Y5X4); format: functional, cell-based;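 further: CHO-S cells with Gal4-NCOR and VP16-NR2E3 two-hybrid luciferase reporter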
Photoreceptor-specific nuclear receptor, sequence (Q9Y5X4 whole entry, the tested form may be a part): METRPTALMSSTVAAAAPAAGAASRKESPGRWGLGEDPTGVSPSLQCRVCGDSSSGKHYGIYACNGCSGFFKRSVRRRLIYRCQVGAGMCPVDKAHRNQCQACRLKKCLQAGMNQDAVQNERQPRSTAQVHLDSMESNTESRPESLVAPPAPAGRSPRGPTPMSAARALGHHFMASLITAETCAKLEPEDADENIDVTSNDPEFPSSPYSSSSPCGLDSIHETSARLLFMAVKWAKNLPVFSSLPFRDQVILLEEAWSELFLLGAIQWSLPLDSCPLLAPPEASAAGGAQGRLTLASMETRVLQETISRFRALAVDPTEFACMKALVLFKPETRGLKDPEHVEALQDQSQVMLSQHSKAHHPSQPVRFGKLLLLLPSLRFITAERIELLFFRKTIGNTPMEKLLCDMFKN

[12] = HEp-2 cell cytotoxicity, dose response, cytotoxicity control for RSV inhibitor project, HTS (AID 2410); format: functional; conditions: human respiratory syncytial virus
[13] = inhibitors of HIV Env-driven cell fusion, dose response, cherry-pick (AID 652057); format: functional, cell-based
[14] = ZM109 Env clade C HIV-1 fusion inhibitors, dose response, HeLa effector, CEM target cells, luciferase, cherry-pick (AID 652058); format: functional, cell-based
[15] = off-target signal loss in HeLa-CEM21 co-culture – HeLa F-luc CTL cells, cherry-picked, counter-screen for HIV-1 Env fusion inhibitor project, dose response (AID 652040); format: functional, cell-based;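 further: potency for signal decrease marking cytotoxic or nonspecific inhibition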
[16] = inhibitors of clade B AD8 Env fusion, dose response, cell-based, cherry-pick (AID 652062); format: functional;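 further: luciferase signal from cell-cell fusion driven by HIV-1 clade B AD8 Env; potency is for inhibitors of fusion seen as a drop in luminescence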
[17] = cells
[18] = target: T2, Low molecular weight phosphotyrosine protein phosphatase (Homo sapiens, UniProt P24666); format: functional; conditions: read-out: IC50_Mean
T2 sequence (P24666 whole entry): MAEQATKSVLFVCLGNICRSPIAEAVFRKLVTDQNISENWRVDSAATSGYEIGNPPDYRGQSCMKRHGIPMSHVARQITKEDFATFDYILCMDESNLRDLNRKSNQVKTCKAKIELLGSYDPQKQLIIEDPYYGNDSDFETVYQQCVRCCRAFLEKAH

[19] = target: T2, Low molecular weight phosphotyrosine protein phosphatase; format: functional; conditions: read-out: IC50_Mean; remark: listed apart in the source
[20] = inhibitors of firefly luciferase expression or activity, dose response, H4 neuroglioma cells, luminescence (AID 1990); format: functional, cell-based
[21] = luciferase reporter signal reduction – luminescence, H4-C neuroglioblastoma cells, dose response (AID 2458); format: functional, cell-based;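 further: H4 neuroglioblastoma cells stably carrying a luciferase reporter gene fusion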
[22] = tested on: BJ; experiment: cytotoxicity toward BJ-TERT fibroblasts, dose response, cell-based, RAS-independent, luminescence (AID 1933); format: functional; conditions: Homo sapiens
[23] = cells; format: functional, cell-based
[24] = Luminescence Cell-Based Dose Response HTS to Identify Inhibitors of 5'UTR Stem-Loop Driven Prion Protein mRNA Translation in H4 Neuroglioblastoma Cells. [Related pubchem assays: 1827 (Project Summary), 1813 (Primary HTS)]; format: functional
[25] = inhibitors of SNCA 5'UTR-driven reporter translation, confirmation, H4 neuroglioma cells, luminescence (AID 1988); format: functional, cell-based
[26] = tested on: BJ; experiment: cells; format: functional, cell-based; conditions: Homo sapiens
[27] = tested on: BJ; experiment: cytotoxicity toward BJ-TERT-LT-ST fibroblasts, dose response, cell-based, RAS-independent, luminescence (AID 1935); format: functional; conditions: Homo sapiens;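 further: BJ fibroblasts immortalized with TERT plus LT and ST oncogenes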
[28] = cytotoxicity toward DRD oncogenic fibroblasts, dose response, cell-based, non-viral oncogenic, luminescence (AID 1934); format: functional; conditions: Homo sapiens
[29] = inhibitors of SNCA 5'UTR-driven translation, confirmation, luminescence, H4 neuroglioblastoma cells, dose confirmation (AID 2454); format: functional, cell-based;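 further: H4 neuroglioblastoma cells carrying an alpha-synuclein 5'UTR luciferase reporter; potency for inhibition of the luciferase signal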
[30] = cells; format: functional, cell-based; remark: listed apart in the source
[31] = target: T3, Nuclear receptor subfamily 0 group B member 1 (Homo sapiens, UniProt P51843); format: functional, cell-based;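 further: HEK293T cells transfected with SF-1 and DAX-1 plus StAR promoter luciferase reporter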
T3 sequence (P51843 whole entry): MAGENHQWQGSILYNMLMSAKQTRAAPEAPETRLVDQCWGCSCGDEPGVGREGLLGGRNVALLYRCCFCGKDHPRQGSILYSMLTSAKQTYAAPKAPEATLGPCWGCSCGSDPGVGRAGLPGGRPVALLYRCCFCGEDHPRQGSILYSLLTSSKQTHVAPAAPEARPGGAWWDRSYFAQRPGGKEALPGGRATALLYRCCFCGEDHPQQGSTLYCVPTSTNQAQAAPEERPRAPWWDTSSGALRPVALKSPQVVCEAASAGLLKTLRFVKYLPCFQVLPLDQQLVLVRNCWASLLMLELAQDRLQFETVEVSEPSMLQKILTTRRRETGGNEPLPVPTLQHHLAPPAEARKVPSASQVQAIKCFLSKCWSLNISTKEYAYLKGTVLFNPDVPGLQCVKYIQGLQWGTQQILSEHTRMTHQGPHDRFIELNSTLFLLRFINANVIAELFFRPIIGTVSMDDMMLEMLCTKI

[32] = target: T4, Protein skinhead-1 (Caenorhabditis elegans, UniProt P34707); format: functional
T4 sequence (P34707 whole entry): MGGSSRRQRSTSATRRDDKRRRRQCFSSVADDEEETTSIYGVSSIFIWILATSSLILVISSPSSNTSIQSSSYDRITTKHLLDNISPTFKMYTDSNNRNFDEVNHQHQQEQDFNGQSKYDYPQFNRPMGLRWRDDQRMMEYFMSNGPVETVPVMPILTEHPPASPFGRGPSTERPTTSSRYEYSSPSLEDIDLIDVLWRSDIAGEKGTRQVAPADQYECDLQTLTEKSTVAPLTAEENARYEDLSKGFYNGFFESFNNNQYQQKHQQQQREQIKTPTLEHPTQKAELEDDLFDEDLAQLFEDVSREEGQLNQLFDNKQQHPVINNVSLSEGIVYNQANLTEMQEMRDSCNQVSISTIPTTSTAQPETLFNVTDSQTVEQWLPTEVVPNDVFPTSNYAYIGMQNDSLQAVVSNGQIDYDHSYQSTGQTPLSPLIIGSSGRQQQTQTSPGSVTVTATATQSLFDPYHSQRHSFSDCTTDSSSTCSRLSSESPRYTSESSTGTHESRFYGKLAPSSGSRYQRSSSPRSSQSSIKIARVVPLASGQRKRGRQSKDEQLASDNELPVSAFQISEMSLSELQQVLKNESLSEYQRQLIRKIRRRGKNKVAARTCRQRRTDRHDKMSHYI

COc1ccc(-n2ncc3c(N(C)C4CCCCC4)ncnc32)cc1
EC50 [1]: 7.56 µM (active) | IC50 [2]: 8.11 µM (active) | IC50 [3]: > 20 µM (inactive) | EC50 [4]: < 0.31 µM (inactive) | IC50 [5]: 10.7 µM (inactive) | IC50 [6]: > 20 µM (inactive) | AC50 [7]: > 52 µM (inactive) | AC50 [8]: 0.246 µM (active) | AC50 [9]: 0.578 µM (active)

CCOC(=O)Cc1nnc2c(Nc3ccccc3F)nc3nonc3n12
EC50 [10]: > 195 µM (not active) | IC50 [11]: 3.87 µM (active)

O=C(NCc1ccco1)c1ccc(Cn2c(=O)c3sccc3n(Cc3ccc(F)cc3)c2=O)cc1
CC50 [12]: 44.8 µM (active) | AC50 [13]: < 0.26 µM (active) | AC50 [14]: 0.349 µM (active) | AC50 [15]: < 0.26 µM (active) | AC50 [16]: 0.665 µM (active) | IC50 [17]: 4.76 µM (active)

CCCCCn1c(N)c(-c2nc3ccccc3o2)c2c([N+](=O)[O-])nn(CC)c(=O)c21
IC50 [18]: 5.88 µM (active) | IC50 [19]: 8.25 µM (active)

Cc1sc(NC(=O)/C=C/c2ccc3c(c2)OCO3)nc1-c1ccccc1
IC50 [11]: 7.04 µM (active)

CCOC(=O)CSC1=C(C#N)C(c2ccc(C)o2)CC(=O)N1 (stereo not given)
EC50 [20]: 2.61 µM (active) | EC50 [21]: 0.961 µM (active) | EC50 [22]: 1.31 µM (active) | EC50 [23]: 1.56 µM (active) | EC50 [24]: 0.894 µM (active) | EC50 [25]: < 0.1 µM (active) | EC50 [26]: 14.9 µM (active) | EC50 [27]: 1.36 µM (active) | EC50 [28]: 1.04 µM (active) | EC50 [29]: > 12 µM (inconclusive) | IC50 [30]: > 67.6 µM (inactive) | IC50 [31]: > 67.6 µM (inactive)

O=C(/C(=C/Nc1ccc(Br)cc1)C(=O)C(F)(F)F)c1ccco1
IC50 [32]: 27.2 µM (active) | IC50 [30]: > 67.5 µM (inactive) | IC50 [31]: > 67.5 µM (inactive)
